# Assay results from patent US20120232158A1, “METHODS OF TREATING HYPERACIDIC DISORDERS” (Yale Univeristy, priority 2008, published 2012).
# “Also recorded” adds a separate entry of the source.
# How the values were obtained:
# Type in all cases: cell-based
# [1] = system: gastric glands (gastric parietal cells); test: Secretagogue (acetyl choline) induced acid secretion in mouse gastric glands with functional CaSR; details: 100 μM acetyl choline, calcilytic at 10 or 100 nM, mice with functional CaSR (Casr+/+; Gcm2−/−), FIG. 3
# [2] = system: gastric glands (gastric parietal cells); test: Acid secretion by superfused gastric glands from mice with constitutively active gastric H,K-ATPase proton pump; details: mice with functional CaSR and constitutively active H,K-ATPase; FIG. 5
# Method: (§1) Individual gastric glands were hand dissected and transferred to the stage of an inverted microscope where they were loaded with the intracellular pH marker BCECF. Once loaded with the dye the glands were superfused with normal HEPES Ringer solution at 37° C. and at a pH of 7.4 for 5 minutes. The glands were then challenged with 20 mM NH4Cl and 0 mM Na to induce an acid load within the cell. The rate of recover was then calculated in the presence or absence of the calcimimetic Compound A at either 10 or 100 nM concentration.
# (§2) The rate of recovery in the absence of Na was recorded for each parietal cell and then summated and the mean ±SEM of the data for each gland and then for each animal determined. […] The recovery rates are determined as the rate of recovery following an acid load. This rate determines how fast the cell can extrude protons and provides a measure of the activity of the gastric H,K-ATPase proton pump.
# These mice have a mutation in the gastric H,K-ATPase proton pump that renders the pump constitutively active.
# [3] = system: gastric glands (gastric parietal cells); test: Acid secretion by superfused gastric glands of CaSR knockout (Casr−/−; Gcm2−/−) mice; details: glands from Casr−/−, FIG. 2; for acid secretion stimulated by natural secretagogue: 100 μM, Gcm2−/− mice
# Method: (§3) Male (Casr^+/+; Gcm2^−/−) or CaSR knockout (Casr^−/−; Gcm2^−/−) mice weighing 22-27 grams (upper panel) or male Sprague-Dawley rats weighing 220-275 grams (lower panel) were fasted with ad lib access to water for 18 hours prior to experimentation. The animals were exposed to an overdose of isofluorane and the stomach was removed by a total gastrectomy. The corpus was removed from the stomach and sectioned at 4° C. All mice were generated at Yale University from a breeding colony. Male Sprague-Dawley rats were purchased from Charles River Laboratories Inc. (Wilmington, Mass.). All animals were cared for according to the standard protocols of the Yale University Animal Care and Use Committee.
# The HEPES-Ringer solution contained (in mmol/L): NaCl 125; KCl 5; MgCl2 0.5; HEPES 22, CaCl2 0.1 or 1.6; glucose 10, pH=7.4. The solution was bubbled with 100% O2. 2′,7′-bis′(carboxyethyl)-5-(6)-carboxyfluorescein (BCECF) from Invitrogen (Seattle, Wash., USA) and stock solutions were prepared in dimethyl sulphoxide (DMSO).
# as §1, §2
# Gastric acid secretion is measured in Casr^−/−; Gcm2^−/− mice that lack a functional CaSR.
# [4] = system: gastric glands (gastric parietal cells); test: Acid secretion by superfused gastric glands isolated from control Casr+/+; Gcm2−/− mice (rate of recovery after acid load, BCECF); details: FIG. 1
# Method: as §3
# (§4) The HEPES-Ringer solution contained (in mmol/L): NaCl 125; KCl 5; MgCl2 0.5; HEPES 22, CaCl2 0.1 or 1.6; glucose 10, pH=7.4. […]
# (§5) Individual gastric glands were hand dissected and transferred to the stage of an inverted microscope where they were loaded with the intracellular pH marker BCECF. […] The rate of recover was then calculated in the presence or absence of the calcimimetic Compound A at either 10 or 100 nM concentration.
# (§6) The rate of recovery in the absence of Na was recorded for each parietal cell and then summated and the mean ±SEM of the data for each gland and then for each animal determined. […] The recovery rates are determined as the rate of recovery following an acid load. […]
# [5] = system: gastric glands (gastric parietal cells); test: Acid secretion by superfused gastric glands isolated from Sprague-Dawley rats (rate of recovery after acid load, BCECF); details: FIG. 1
# Method: as §3, §4, §5, §6
# [6] = system: gastric glands (gastric parietal cells); test: Secretagogue (histamine) induced acid secretion in superfused gastric glands from Sprague-Dawley rats; details: rat glands treated with secretagogue (histamine) first (bars B, C, D); FIG. 6
# Method: The HEPES-Ringer solution contained (in mmol/L): NaCl 125; KCl 5; MgCl2 0.5; HEPES 22, CaCl2 0.1 or 1.6; glucose 10, pH=7.4. The solution was bubbled with 100% O2. 2′,7′-bis′(carboxyethyl)-5-(6)-carboxyfluorescein (BCECF) from Invitrogen (Seattle, Wash., USA) and stock solutions were prepared in dimethyl sulphoxide (DMSO). […]
smiles,measurement,setting,value
"CC(C)(Cc1ccc2ccccc2c1)NCC(O)COc1cccc(Cl)c1C#N (stereo not drawn) [Compound B, 2-chloro-6-(2-hydroxy-3-(2-methyl-1-(naphthalen-2-yl)propan-2-ylamino)propoxy)benzonitrile]",inhibition of secretagogue induced acid secretion,[1],inhibition of acid secretion in a concentration dependent fashion
same,inhibition of secretagogue induced acid secretion,[1]; listed as compound B,reduces acid secretion in a dose-dependent manner
same,inhibition of acid secretion,[2],suppresses gastric acid secretion in a concentration-dependent fashion; also recorded: reduce acid secretion
C[N+](C)(C)CCOC(N)=O [carbachol],acid secretion stimulated by natural secretagogue,[3],able to increase acid secretion; also recorded: increases acid secretion
NCCc1c[nH]cn1 [histamine],acid secretion stimulated by natural secretagogue,[3],able to increase acid secretion; also recorded: increases acid secretion
"COc1cccc(C(C)NCCCc2ccccc2Cl)c1 (stereo not drawn) [Compound A, 3-(2-chlorophenyl)-N-(1-(3-(methyloxy)phenyl)ethyl)-1-propanamine]",concentration dependence of the effect on acid secretion,[4],concentration dependent
same,concentration dependence of the effect on acid secretion,[5],concentration dependent
same,effect on basal acid secretion,[3]; Gcm2−/− mice lacking functional CaSR,unable to increase acid secretion
same,effect on secretagogue induced acid secretion,[6],decreased acid secretion
